Source: article PMC7132332 (Biochemistry, 2020)

Target: T1, WecA (Escherichia coli, UniProt P0AC78)
T1 sequence (P0AC78 1-367): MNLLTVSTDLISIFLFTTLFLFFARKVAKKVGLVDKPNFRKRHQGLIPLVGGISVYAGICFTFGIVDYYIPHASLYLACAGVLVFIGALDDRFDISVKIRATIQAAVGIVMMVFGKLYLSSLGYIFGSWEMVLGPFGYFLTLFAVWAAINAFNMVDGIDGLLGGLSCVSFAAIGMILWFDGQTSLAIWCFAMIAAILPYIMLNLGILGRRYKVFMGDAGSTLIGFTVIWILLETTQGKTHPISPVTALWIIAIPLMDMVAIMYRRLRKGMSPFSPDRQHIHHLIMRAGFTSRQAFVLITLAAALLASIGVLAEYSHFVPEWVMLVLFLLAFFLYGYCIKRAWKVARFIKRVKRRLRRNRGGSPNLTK
Test: HPLC transferase assay with cell envelope fraction
Assay type: biochemical
Conditions: 2CN- or NBD-B(4Z)P; overexpressed recombinant WecA; bicine pH 8.5, MgCl2, cholate, 37 °C

## CC(=O)N[C@H]1[C@@H](OP(=O)(O)OP(=O)(O)OC[C@H]2O[C@@H](n3ccc(=O)[nH]c3=O)[C@H](O)[C@@H]2O)O[C@H](CO)[C@@H](O)[C@@H]1O [UDP-GlcNAc]
  HPLC transferase assay with cell envelope fraction: able to convert fl-BPs with far lower concentrations of UDP-GlcNAc
